Source: patent publication US20250025439A1, “DERIVATIVES OF NIFUROXAZIDE FOR USE IN THE TREATMENT OF MITOCHONDRIAL DISORDERS AND NEURODEGENERATIVE DISEASES” (priority 2021, published 2025)

Columns and labels:
[1] = target: T1, Pleckstrin homology-like domain family B member 2 (PHLDB2) (Homo sapiens, UniProt Q86SQ0); test: Affinity chromatography with NFX-beads and mass spectrometry; type: binding; conditions: spectral counts, NFX coupled beads vs beads alone, human fibroblast extracts
T1 construct: Protein extracts from human fibroblasts were incubated with magnetic beads; endogenous in cells; host or cells: human fibroblast lysate
T1 sequence (Q86SQ0 1-1253): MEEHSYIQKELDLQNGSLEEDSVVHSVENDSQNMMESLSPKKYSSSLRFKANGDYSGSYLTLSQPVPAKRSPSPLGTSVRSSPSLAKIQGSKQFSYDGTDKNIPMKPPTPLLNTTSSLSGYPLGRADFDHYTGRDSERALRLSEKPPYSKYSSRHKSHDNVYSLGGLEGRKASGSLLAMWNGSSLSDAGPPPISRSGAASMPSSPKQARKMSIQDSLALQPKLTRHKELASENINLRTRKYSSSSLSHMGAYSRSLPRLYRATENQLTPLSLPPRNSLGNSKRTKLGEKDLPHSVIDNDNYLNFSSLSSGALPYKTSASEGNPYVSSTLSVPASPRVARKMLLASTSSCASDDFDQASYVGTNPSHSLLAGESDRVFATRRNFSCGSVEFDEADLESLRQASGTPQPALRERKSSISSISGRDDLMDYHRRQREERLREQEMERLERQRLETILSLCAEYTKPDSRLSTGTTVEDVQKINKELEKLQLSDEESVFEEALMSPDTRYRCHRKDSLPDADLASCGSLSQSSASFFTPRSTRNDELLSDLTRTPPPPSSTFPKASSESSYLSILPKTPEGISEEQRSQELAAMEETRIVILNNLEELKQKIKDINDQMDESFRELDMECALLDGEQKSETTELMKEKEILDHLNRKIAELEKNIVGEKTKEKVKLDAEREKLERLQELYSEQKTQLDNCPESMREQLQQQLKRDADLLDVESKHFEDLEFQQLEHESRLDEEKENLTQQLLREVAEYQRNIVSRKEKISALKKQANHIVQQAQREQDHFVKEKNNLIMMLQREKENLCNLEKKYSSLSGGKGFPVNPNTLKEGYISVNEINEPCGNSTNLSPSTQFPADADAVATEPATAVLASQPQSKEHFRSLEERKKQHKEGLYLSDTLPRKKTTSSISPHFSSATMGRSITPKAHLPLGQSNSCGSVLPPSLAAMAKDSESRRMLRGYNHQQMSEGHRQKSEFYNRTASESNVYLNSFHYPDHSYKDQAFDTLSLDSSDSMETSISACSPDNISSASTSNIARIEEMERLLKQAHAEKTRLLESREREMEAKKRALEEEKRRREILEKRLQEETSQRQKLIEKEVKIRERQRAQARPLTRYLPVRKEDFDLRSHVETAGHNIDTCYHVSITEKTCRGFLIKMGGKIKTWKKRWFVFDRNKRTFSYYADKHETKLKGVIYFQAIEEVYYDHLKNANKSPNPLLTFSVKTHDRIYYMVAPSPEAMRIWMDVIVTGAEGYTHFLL
Description: (§1) Fibroblasts were trypsinized and washed with PBS 1× then incubated in lysis buffer on ice during 20 minutes (Lysis buffer: Tris-HCl pH 7.5 50 mM, EDTA 2 mM, Triton X-100 0.1% supplemented with anti-protease and anti-phosphatase (Complete-Mini™—Roche). After centrifugation 15 minutes, 13 000 rpm at 4° C., supernatant was conserved and the protein concentration was determined using the Pierce BCA assay kit (Thermo Fisher Scientific).
(§2) 10 μL of magnetic beads and NFX-beads were washed three times in Bead buffer before to be resuspended 100 μL of Bead buffer (Bead buffer: Tris-HCl pH 7.5 50 mM, NaCl 150 mM, Triton X-100 0.1%, supplemented with anti-protease and anti-phosphatase (Complete-Mini™—Roche)) thanks to a magnetic rack (DynaMag-2 Ref 12321D Life Technologies). 800 μg of proteins were mixed with 100 μL of diluted beads and the final volume was set to 800 μL with Bead buffer. The proteins and the beads were incubated 30 minutes with rotation in a cold room. Using a magnetic rack, the beads were separated from the protein extract and washed three time with Bead buffer before to be resuspended in 75 μL of Laemmli2X. Laemmli with beads was put 5 minutes at 95° C. to eluate the proteins and the beads were discarded using a magnetic rack. 35 μL of the eluted proteins were subjected to SDS-PAGE and silver coloration (ProteoSilver™ Silver Stain Kit—Sigma Aldrich). Bands of interest were extracted from the gel and subjected to mass spectrometry.
(§3) Mass spectrometric identification and quantification of the pulled down proteins were performed as previously described (Shrivastava et al., EMBO, 2019, 38:e99871). The raw data were cleaned using the following pathway. First, only the proteins found to interact with the NFX coupled beads in the three replicates were kept for further analysis. […] The final proteins were then classified based on the fold chance and the p-value.
(§4) Identification of the NFX intracellular targets is a crucial step in understanding its mechanisms of action and to be able to improve its efficiency on a rational basis. To purify NFX-binding proteins, affinity chromatography purification was performed using magnetic beads. Protein extracts from human fibroblasts were incubated with magnetic beads alone or to which NFX has been covalently coupled (Scheme 1). Eluted fractions were subjected to SDS-PAGE electrophoresis and silver staining (FIG. 9A). The pattern was clearly different between eluted proteins from NFX-beads compared to those eluted form beads alone with 13 bands either appeared or were of a higher intensity with the NFX-beads (FIG. 9B). Excised bands were subjected to proteolytic digestion and mass spectrometry.

[2] = target: T2, Unconventional myosin-IXb (MYO9B) (Homo sapiens, UniProt Q13459); test: as above; type: binding; conditions: spectral counts, NFX coupled beads vs beads alone, human fibroblast extracts
T2 construct: Protein extracts from human fibroblasts were incubated with magnetic beads; endogenous in cells; host or cells: human fibroblast lysate
T2 sequence (Q13459 whole entry): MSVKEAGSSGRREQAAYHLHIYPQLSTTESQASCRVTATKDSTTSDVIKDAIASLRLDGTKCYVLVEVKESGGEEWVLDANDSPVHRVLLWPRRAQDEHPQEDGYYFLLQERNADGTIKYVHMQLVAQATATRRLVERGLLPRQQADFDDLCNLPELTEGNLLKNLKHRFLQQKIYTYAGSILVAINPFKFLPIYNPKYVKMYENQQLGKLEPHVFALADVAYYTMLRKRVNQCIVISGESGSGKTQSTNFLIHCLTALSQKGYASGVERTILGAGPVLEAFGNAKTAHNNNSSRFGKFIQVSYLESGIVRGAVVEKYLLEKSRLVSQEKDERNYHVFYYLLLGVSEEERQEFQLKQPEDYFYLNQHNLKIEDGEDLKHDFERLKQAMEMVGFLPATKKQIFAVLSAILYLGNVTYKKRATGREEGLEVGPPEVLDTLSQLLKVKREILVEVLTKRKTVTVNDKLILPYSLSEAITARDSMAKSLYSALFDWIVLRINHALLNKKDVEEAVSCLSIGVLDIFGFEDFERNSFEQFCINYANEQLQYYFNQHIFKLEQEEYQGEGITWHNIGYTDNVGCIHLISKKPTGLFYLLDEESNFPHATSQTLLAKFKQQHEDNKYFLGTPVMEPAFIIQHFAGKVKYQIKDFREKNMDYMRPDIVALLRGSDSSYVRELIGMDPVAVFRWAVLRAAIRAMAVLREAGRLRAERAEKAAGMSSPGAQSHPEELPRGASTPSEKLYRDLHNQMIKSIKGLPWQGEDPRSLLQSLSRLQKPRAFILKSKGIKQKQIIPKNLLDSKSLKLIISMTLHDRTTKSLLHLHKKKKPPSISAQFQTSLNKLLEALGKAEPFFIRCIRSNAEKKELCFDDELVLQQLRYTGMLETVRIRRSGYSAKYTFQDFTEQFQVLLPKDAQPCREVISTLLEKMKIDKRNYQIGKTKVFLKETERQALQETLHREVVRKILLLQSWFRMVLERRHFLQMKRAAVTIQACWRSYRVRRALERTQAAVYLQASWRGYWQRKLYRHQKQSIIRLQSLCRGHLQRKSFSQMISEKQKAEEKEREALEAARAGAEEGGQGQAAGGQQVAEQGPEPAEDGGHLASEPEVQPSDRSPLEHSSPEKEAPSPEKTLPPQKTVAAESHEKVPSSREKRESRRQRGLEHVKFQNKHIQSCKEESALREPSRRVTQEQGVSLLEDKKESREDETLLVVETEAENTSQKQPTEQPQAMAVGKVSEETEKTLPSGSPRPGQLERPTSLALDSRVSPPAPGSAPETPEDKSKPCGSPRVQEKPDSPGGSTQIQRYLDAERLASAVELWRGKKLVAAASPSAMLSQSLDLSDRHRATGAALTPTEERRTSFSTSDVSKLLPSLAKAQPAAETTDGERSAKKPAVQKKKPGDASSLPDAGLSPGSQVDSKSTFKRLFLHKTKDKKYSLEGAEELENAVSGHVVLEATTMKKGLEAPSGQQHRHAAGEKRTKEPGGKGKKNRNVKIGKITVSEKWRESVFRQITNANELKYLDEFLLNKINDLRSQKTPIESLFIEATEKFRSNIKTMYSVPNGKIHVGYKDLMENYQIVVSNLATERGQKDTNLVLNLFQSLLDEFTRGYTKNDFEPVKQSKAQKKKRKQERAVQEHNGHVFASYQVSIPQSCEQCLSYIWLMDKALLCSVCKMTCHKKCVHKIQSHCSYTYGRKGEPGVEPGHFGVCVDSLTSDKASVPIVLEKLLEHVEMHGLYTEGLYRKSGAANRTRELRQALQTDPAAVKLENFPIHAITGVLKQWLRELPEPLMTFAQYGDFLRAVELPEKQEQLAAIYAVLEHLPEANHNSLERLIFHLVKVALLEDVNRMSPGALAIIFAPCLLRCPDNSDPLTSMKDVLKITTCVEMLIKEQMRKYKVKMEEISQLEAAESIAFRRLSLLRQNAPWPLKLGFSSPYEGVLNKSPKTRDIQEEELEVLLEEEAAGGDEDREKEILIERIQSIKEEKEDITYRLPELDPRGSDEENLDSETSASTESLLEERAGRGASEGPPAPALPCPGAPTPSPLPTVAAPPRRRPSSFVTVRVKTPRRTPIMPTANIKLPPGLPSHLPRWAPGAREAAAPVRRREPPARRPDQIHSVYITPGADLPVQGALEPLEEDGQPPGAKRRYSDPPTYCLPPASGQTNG
Description: as §1, §2, §3, §4

Fold change [1]: 91.67 | Fold change [2]: 34.52
Compound: O=C(N/N=C/c1ccc([N+](=O)[O-])o1)c1ccc(O)cc1 [NFX, (E)-4-hydroxy-N′-((5-nitrofuran-2-yl)methylene)benzohydrazide]
